Results taken from patent US20030125321A1, “Methods and compositions for treating respiratory pathologies” (priority 2001, published 2003).

Tested on: male Wistar rats
Assay: Pulmonary paracellular permeability to 125I labelled human serum albumin after intratracheal Pseudomonas aeruginosa LPS
Type: in vivo, rat
Experimental: Pulmonary permeability was measured by means of a tracer, ^125I -labelled human serum albumin which, after intratracheal infusion, was determined in urine, plasma, lung tissue and bronchoalveolar lavage fluid.
For this experiment, three groups of 6 male Wistar rats (200-225 g) were pretreated either with ML-7 by the IP route (3 mg/kg then 1 mg/kg 3 times a day for 48 h) or the vehicle (ethanol 10%). One hour after the next-to-last administration of ML-7, under urethane anesthesia ([…] IP), a slow intratracheal infusion of 150 μl of an iso-osmolar solution (5% bovine albumin +PBS) containing the tracer and containing (2 groups) or not containing (control group) LPS (1 μg/rat) was given.
Four hours after the intratracheal infusion, urine, blood, bronchoalveolar lavage (BAL) and lungs were harvested and ^125I radioactivity was measured on each sample.

effect on vascular endothelial cells (endothelium permeability, tone, pulmonary circulating hemodynamics) (inferred from unchanged plasma radioactivity): does not present effect
SMILES: O=S(=O)(c1cccc2c(I)cccc12)N1CCCNCC1 [ML-7, 1-(5-iodonaphtalene-1-sulfonyl)-1H-hexahydro-1,4-diazepine]
LPS-induced increase in pulmonary permeability (ML-7 pretreatment IP 3 mg/kg then 1 mg/kg 3 times a day for 48 h): inhibited
